Assay results as given in patent US11981666B2, “GLP-1 receptor agonist and composition and use thereof” (HANGZHOU ZHONGMEIHUADONG PHARMACEUTICAL CO., LTD., priority 2021, dated 2024).
Several values for one entry are separate records, joined by “and”; a condition that tells them apart may be missing. Equal entries are not always repeated. Where two headings read alike, the source gives them in different places.

Experiments:
[1] = Pharmacokinetic experiment in cynomolgus monkeys; type: in vivo, cynomolgus monkey; conditions: for Vd: read-out: Vss; for F: oral 20 mg/kg vs intravenous 2 mg/kg
Description: Experimental objective: To evaluate the pharmacokinetic profile of compound 1 and compare it with compound 20 (control compound).
Experimental method: 6 male Non-juvenile cynomolgus monkeys, 4˜5 kg, were purchased from Huazheng Experimental Animal Center. Group IV was administered intravenously at a dose of 2 mg/kg (5 mL/kg) (n=3), and the group PO was administered orally at a dose of 20 mg/kg (10 mL/kg) (n=3). Approximately 500 μL blood was collected from cephalic vein and saphenous vein at each experimental time point, and centrifuged at 2,000 g for 5 min (4° C.) within 15 min after sampling for subsequent analysis.

[2] = Caco-2 cell transport experiment; type: in vitro ADME; conditions: human
Description: Caco-2 cells, 77th passage; HBSS, Lot: G210713; ACN+IS (tolbutamide 200 ng/mL); Caco-2 was inoculated on polyethylene (PET) in a 96-well Falcon plate at 2×10^5 cells/cm^2 until a confluent cell monolayer was formed on day 21-28. The culture medium was changed every 3-4 days. The test compound was diluted to a concentration of 10 uM with a transport buffer of 10 mM stock solution (HBSS without BSA) and applied to the apical side or the basolateral side of the cell monolayer. Incubation was carried out at 37° C., 5% CO2, and 95% relative humidity for 120 minutes, and the permeability of the test compound from the A to B direction or the B to A direction was determined in duplicate. The efflux ratio of each compound was determined. Test and reference compounds were quantitated by LC-MS/MS analysis based on the analyte/IS peak area ratio. […] [table]

[3] = Metabolic stability in (human) liver microsomes; type: in vitro ADME; conditions: pH 7.4, test concentration 1 μM
Description: 3×NADPH stock solution (6 mM, 5 mg/mL) was prepared by dissolving NADPH in the buffer solution; 4. 30 μL of 1.5 μM additive solution containing 0.75 mg/mL microsomal solution was distributed to the plates designated for different time points (0, 5, 15, 30, 45 minutes); 5. at 0 min, 150 μL of ACN containing IS was added to the wells of the plate, followed by addition of 15 μL of NADPH stock solution (6 mM, step 3); 6. all other plates were pre-incubated at 37° C. for 5 minutes; 7. adding 15 μL of NADPH stock solution to the plate to start the reaction and timing; 8. 150 μL of ACN containing IS was added to the wells of the corresponding plates to stop the reaction at 5 min, 15 min, 30 min and 45 min, respectively; 9. after quenching, the plates were shaken on a shaker for 10 minutes (600 rpm/min) and then centrifuged at 6000 rpm for 15 minutes; 10. 80 μL of supernatant was transferred from each well to a 96-well sample plate containing 140 μL water for LC/MS analysis.
Detection method: LC-MS/MS-11 (8050), internal standard: tolbutamide; MS conditions: positive ion ESI for testosterone and test compound, and negative ion ESI for tolbutamide; Mobile phases: mobile phase A is 0.1% FA in water, and mobile phase B is 0.1% FA in ACN; Column and specification: ACQUITY UPLC HSS T3 1.8 um 2.1*50 mm.

[4] = target: T1, Human GLP-1R (Homo sapiens, UniProt P43220); assay: GLP-1R agonistic activity assay (HTRF cAMP, 293A GFP-GLP-1R cells); type: cell-based; conditions: cAMP level, geometric mean
T1 construct: expressed in transfected cells
Source text: The method was a competitive immunoassay.

[5] = system: ICR mice; assay: Toxicological experiment in mice, 14-day repeated oral gavage (toxicity study); type: in vivo
Description: (§1) Experimental method: 212 ICR mice (SPF grade), half male and half female. Animals in groups 1-5 were used for toxicity study, with 10 male and 10 female animals in each group; and animals in groups 6-9 were used for toxicokinetic study, with 14 male and 14 female animals in each group (2 of them were spare animals). […] Animals in Groups 1-9 were administered orally once a day for 14 consecutive days.

[6] = target: T2, hERG potassium channels (Homo sapiens, UniProt Q12809); assay: Test for inhibition of hERG potassium channels (whole-cell patch clamp, HEK-293-hERG cells); type: cell-based; conditions: for hERG (IR): inhibition rate of tail current
T2 construct: expressed in transfected cells; host or cells: HEK-293-hERG cells
Source text: Positive control: Amitriptyline hydrochloride or Terfenadine

[7] = system: ICR mice; assay: Toxicological experiment in mice, 14-day repeated oral gavage (toxicokinetic study); type: in vivo, mouse; conditions: toxicokinetic study, female animals, 200 mg/kg oral once a day for 14 days
Description: as §1

[8] = as above; type: in vivo, mouse; conditions: ICR, mouse, po, 200 mg/kg, Day 14; for AUC(0-t): plasma
Description: as §1

[9] = intravenous 2 mg/kg, male, individual animals #1, #2, #3, 2 mg/kg
[10] = male, cynomolgus monkey, plasma, iv, 2 mg/kg, intravenous 2 mg/kg, Mean (n=3)
[11] = male, cynomolgus monkey, plasma, iv, 2 mg/kg, intravenous 2 mg/kg, individual animals #1, #2, #3
[12] = male, cynomolgus monkey, plasma, po, 20 mg/kg, oral 20 mg/kg, Mean (n=3)
[13] = oral 20 mg/kg, male, individual animals #4, #5, #6, 20 mg/kg

T2 sequence (Q12809 whole entry): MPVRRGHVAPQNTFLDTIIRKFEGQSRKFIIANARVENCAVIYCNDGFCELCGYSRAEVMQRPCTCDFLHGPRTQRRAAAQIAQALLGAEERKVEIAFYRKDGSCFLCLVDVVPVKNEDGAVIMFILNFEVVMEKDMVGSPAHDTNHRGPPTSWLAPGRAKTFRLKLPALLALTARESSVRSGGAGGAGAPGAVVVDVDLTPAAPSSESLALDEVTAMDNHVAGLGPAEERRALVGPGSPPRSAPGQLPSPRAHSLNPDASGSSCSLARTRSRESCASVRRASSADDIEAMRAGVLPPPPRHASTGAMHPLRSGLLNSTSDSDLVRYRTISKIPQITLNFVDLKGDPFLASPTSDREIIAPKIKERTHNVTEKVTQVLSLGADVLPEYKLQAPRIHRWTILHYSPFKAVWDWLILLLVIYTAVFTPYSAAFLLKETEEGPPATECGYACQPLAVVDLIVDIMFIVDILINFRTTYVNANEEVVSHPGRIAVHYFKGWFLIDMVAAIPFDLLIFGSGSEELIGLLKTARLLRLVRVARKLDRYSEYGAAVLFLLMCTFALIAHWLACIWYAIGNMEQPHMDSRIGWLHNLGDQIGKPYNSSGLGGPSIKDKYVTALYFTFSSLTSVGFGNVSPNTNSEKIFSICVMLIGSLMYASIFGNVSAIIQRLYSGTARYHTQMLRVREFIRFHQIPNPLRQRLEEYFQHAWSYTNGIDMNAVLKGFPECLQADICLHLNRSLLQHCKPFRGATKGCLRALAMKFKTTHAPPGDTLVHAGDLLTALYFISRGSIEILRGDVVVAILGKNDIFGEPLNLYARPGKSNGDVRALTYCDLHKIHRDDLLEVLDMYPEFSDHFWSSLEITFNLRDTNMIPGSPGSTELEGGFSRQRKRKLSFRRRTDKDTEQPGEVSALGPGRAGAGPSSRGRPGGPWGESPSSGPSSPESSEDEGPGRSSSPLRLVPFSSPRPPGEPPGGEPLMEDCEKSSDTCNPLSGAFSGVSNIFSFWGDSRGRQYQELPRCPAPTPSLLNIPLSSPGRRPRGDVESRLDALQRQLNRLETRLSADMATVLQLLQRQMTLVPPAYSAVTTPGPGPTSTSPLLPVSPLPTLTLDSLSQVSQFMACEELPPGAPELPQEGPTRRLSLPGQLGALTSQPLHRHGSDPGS
T1 sequence (P43220 24-463): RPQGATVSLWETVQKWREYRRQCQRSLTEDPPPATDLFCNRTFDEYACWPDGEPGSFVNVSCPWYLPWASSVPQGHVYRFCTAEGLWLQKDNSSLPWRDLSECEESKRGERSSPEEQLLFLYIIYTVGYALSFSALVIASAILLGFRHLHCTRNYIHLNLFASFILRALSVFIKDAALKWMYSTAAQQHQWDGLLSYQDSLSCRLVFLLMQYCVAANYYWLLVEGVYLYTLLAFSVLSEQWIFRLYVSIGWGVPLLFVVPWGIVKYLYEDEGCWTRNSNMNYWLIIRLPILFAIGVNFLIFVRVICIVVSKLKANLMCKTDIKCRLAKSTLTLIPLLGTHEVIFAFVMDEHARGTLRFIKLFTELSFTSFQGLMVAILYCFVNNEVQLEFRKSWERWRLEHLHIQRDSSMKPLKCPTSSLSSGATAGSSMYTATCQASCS

O=C(O)c1ccc2nc(CN3CCC(c4cccc(OCc5ccc(C6COC6)cc5F)n4)CC3)n(C[C@@H]3CCO3)c2c1 [Compound 1, (S)-2-((4-(6-((2-fluoro-4-(oxetan-3-yl)benzyl)oxy)pyridin-2-yl)piperidin-1-yl)methyl)-1-(oxetan-2-ylmethyl)-1H-benzo[d]imidazole-6-carboxylic acid]
pharmacokinetic profile, orally administered (conclusion) ([1]; compared with control compound 20): significantly better than that of the control compound 20
AUCINF [1, 9]: 14.9 hr * μM and 13.0 hr * μM and 8749 hr * ng/ml and 7622 hr * ng/ml
AUClast [1, 9]: 14.9 hr * μM and 13.0 hr * μM and 15215 hr * ng/ml and 8739 hr * ng/ml and 7607 hr * ng/ml
CL [1, 9]: 2.19 mL/min/kg and 3.81 mL/min/kg and 4.37 mL/min/kg and 2.18 mL/min/kg and 3.82 mL/min/kg
MRTINF [1, 9]: 0.247 h and 0.242 h
T1/2 [1, 9]: 1.46 h and 1.50 h
Vss [1, 9]: 0.0564 L/kg and 0.0635 L/kg
AUC(0-inf) [1, 10]: 18 µM·h and 10500 ng·h/mL
AUC(0-t) [1, 10]: 17.9 µM·h and 10500 ng·h/mL
MRT inf [1, 10]: 17.5 min
clearance [1, 10]: 3.46 mL/min/kg
half-life [1, 10]: 83.4 min
AUC(0-inf) [1, 11]: 26 µM·h and 15200 ng·h/mL
AUC(0-t) [1, 11]: 26 µM·h
MRT inf [1, 11]: 23.2 min
half-life [1, 11]: 73.8 min
Vd ([1]; male, cynomolgus monkey, plasma, iv, 2 mg/kg, intravenous 2 mg/kg, male, Mean (n=3)): 0.0569 L/kg
Vd ([1]; male, cynomolgus monkey, plasma, iv, 2 mg/kg, intravenous 2 mg/kg, male, individual animals #1, #2, #3): 0.0508 L/kg
AUC(0-inf) [1, 12]: 61.8 µM·h and 36200 ng·h/mL
AUC(0-t) [1, 12]: 34500 ng·h/mL and 58.9 µM·h
MRT inf [1, 12]: 403 min
half-life [1, 12]: 319 min
Cmax ([1]; male, cynomolgus monkey, plasma, po, 20 mg/kg, oral 20 mg/kg, male, Mean (n=3), read-out: Cmax): 12700 ng/mL and 21.6 µM
Tmax ([1]; male, cynomolgus monkey, plasma, po, 20 mg/kg, oral 20 mg/kg, male, Mean (n=3), read-out: Tmax): 1.67 h
Tmax ([1]; male, cynomolgus monkey, plasma, po, 20 mg/kg, oral 20 mg/kg, male, individual animals #4, #5, #6, read-out: Tmax): 2 h
oral bioavailability (conclusion) ([1]; oral 20 mg/kg): high oral bioavailability
F ([1]; male, Mean (n=3)): 32.8%
F ([1]; male, individual animals #4, #5, #6): 40.5% and 16.2% and 41.8%
AUCINF [1, 13]: 72.8 hr * μM and 37.3 hr * μM and 75.2 hr * μM and 42676 hr * ng/ml and 21853 hr * ng/ml and 44083 hr * ng/ml
AUClast [1, 13]: 72.6 hr * μM and 29.0 hr * μM and 75.1 hr * μM and 42563 hr * ng/ml and 17014 hr * ng/ml and 44038 hr * ng/ml
Cmax [1, 13]: 12500 ng/mL and 2270 ng/mL and 23200 ng/mL
MRTINF [1, 13]: 3.15 h and 14.5 h and 2.47 h
T1/2 [1, 13]: 3.03 h and 10.4 h and 2.52 h
Tmax [1, 13]: 1.00 h
efflux ratio at 120 min, 10 uM ([2]; Papp(BA)/Papp(AB)): 5.26
Papp A→B at 120 min, 10 uM ([2]; apical to basolateral, 10 uM, 120 minutes): 3.14 ×10⁻⁶ cm/s
Papp B→A at 120 min, 10 uM ([2]; basolateral to apical, 10 uM, 120 minutes): 16.5 ×10⁻⁶ cm/s
half-life at 1 μM [3]: 130 min
EC50 [4]: 0.03 nM
non-toxic response dose level ([5]; ICR mice, gavage once a day for 14 consecutive days): 200 mg/kg
toxicological effects on experimental animals (conclusion) ([5]; at the studied dose (200 mg/kg)): no significant toxicological effects
biochemical analysis of serum ([5]; compared to vehicle control): no significant toxicological changes
clinical observation ([5]; toxicity study, 100 mg/kg, presumed not related to the test compound): occasionally showed abnormal gait, decreased activity, piloerection and traumatic abnormalities
IC50 [6]: 15.9 µM
hERG inhibitory activity (conclusion) [6]: Did not Exhibit hERG Inhibitory Activity
hERG (IR) ([6]; 1 μM): 3.75% (1 μM)
hERG (IR) ([6]; 10 μM): 40.7 (10 μM) %
animals found dead [7]: 1/14
Cmax ([8]; plasma of female animals): 117 µg/mL
Cmax ([8]; plasma of male animals): 81 µg/mL
AUC(0-t) ([8]; female, plasma of female animals, read-out: AUC(0-t) (second value listed)): 271 µg·h/mL
AUC(0-t) ([8]; female, plasma of female animals, read-out: AUC(0-t), the systemic exposure (first value listed)): 291 µg·h/mL
AUC(0-t) ([8]; male, plasma of male animals, read-out: AUC(0-t) (second value listed)): 200 µg·h/mL
AUC(0-t) ([8]; male, plasma of male animals, read-out: AUC(0-t), the systemic exposure (first value listed)): 218 µg·h/mL
